What was measured:
RAO horses [1] = assay: Budesonide study: moldy hay challenge, lung function variables and clinical score; format: in vivo
From the text: Nozzle A and a […]® inhaler device not available commercially is used in the study.

RAO horses [2] = assay: Segmented neutrophil and lymphocyte counts in the 1st and 2nd ciclesonide studies; format: in vivo; details: for lymphocytes count / segmented neutrophil count: after administration of dexamethasone 0.066 mg/kg per os; for Lymphocytes / Segmented neutrophils: dexamethasone 0.066 mg/kg per os once daily 14 days, mean, n=8
Protocol: (§1) The commercially available […]® is used in the study.
The segmented neutrophil counts and the lymphocyte counts are determined in the studies above: ciclesonide treatment versus dexamethasone treatment.
Concentration of segmented neutrophils and lymphocytes on day (D): D0, D14 and D21 in the treatment groups of dexamethasone and different doses of ciclesonide (n=8) (mean (SEM)

[3] = taken orally; cited from earlier work
RAO horses [4] = assay: 2nd ciclesonide study: moldy hay challenge, lung function variables and weighted clinical score; format: in vivo; details: dexamethasone 0.066 mg/kg per os once daily; after 14 days
From the text: as §1

RAO horses [5] = assay: 1st ciclesonide study: moldy hay challenge, serum cortisol; format: in vivo; details: dexamethasone 0.066 mg/kg per os once daily; days 3, 5, 7, 10, 14 and 17; p<0.0001
RAO horses [6] = assay: 1st ciclesonide study: moldy hay challenge, lung function variables and breathing effort score; format: in vivo; details: dexamethasone 0.066 mg/kg per os once daily; after 14 days; p<0.0001
RAO horses [7] = assay: 2nd ciclesonide study: moldy hay challenge, serum cortisol; format: in vivo; details: dexamethasone 0.066 mg/kg per os once daily; days 3, 5, 7, 10, 14 and 17; p<0.0001
From the text: as §1

in vivo = details: horse, concentration of C21-C21-desisobutyrylciclesonide in plasma

CCCC1O[C@@H]2C[C@H]3[C@@H]4CCC5=CC(=O)C=C[C@]5(C)[C@H]4[C@@H](O)C[C@]3(C)[C@]2(C(=O)CO)O1 (stereo partly drawn) [budesonide]
clinical score (breathing effort score) compared to pretreatment values (RAO horses [1]; all three budesonide doses (450/900/1800 μg/horse twice daily), after 7 and 14 days, p=0.002 to p<0.0001): significantly reduced | all lung function variables (transpulmonary pressure, lung resistance, lung elastance) compared to pretreatment values (RAO horses [1]; budesonide 1800 μg/horse ex RESPIMAT twice daily per inhalation, after 14 days, p≤0.0001): significantly reduced | lung function variables, difference to dexamethasone group (RAO horses [1]; budesonide 1800 μg/horse ex RESPIMAT twice daily, after 7 or 14 days): no significant difference | clinical score, difference to dexamethasone group (RAO horses [1]; budesonide 900 and 1800 μg/horse ex RESPIMAT twice daily, after 7 and 14 days): no significant difference

C[C@@H]1C[C@H]2[C@@H]3CCC4=CC(=O)C=C[C@]4(C)[C@@]3(F)[C@@H](O)C[C@]2(C)[C@@]1(O)C(=O)CO [dexamethasone]
lymphocytes count (RAO horses [2]; 1st ciclesonide study): decreased | segmented neutrophil count (RAO horses [2]; 1st ciclesonide study): increased | lymphocytes count (RAO horses [2]; 2nd ciclesonide study): decreased | segmented neutrophil count (RAO horses [2]; 2nd ciclesonide study): increased | neutrophilia and lymphopenia (RAO horses [2]; after treatment with dexamethasone (1st and 2nd ciclesonide study)): Neutrophilia and lymphopenia is observed | Lymphocytes (RAO horses [2]; 1st ciclesonide study, D 0): 2.1e+09 L⁻¹ | Segmented neutrophils (RAO horses [2]; 1st ciclesonide study, D 0): 4.77e+09 L⁻¹ | Lymphocytes (RAO horses [2]; 1st ciclesonide study, D 14): 1.71e+09 L⁻¹ | Segmented neutrophils (RAO horses [2]; 1st ciclesonide study, D 14): 6.16e+09 L⁻¹ | Lymphocytes (RAO horses [2]; 1st ciclesonide study, D 21): 1.76e+09 L⁻¹ | Segmented neutrophils (RAO horses [2]; 1st ciclesonide study, D 21): 4.27e+09 L⁻¹ | Lymphocytes (RAO horses [2]; 2nd ciclesonide study, D 0): 2.14e+09 L⁻¹ | Segmented neutrophils (RAO horses [2]; 2nd ciclesonide study, D 0): 4.82e+09 L⁻¹ | Lymphocytes (RAO horses [2]; 2nd ciclesonide study, D 14): 1.73e+09 L⁻¹ | Segmented neutrophils (RAO horses [2]; 2nd ciclesonide study, D 14): 6.23e+09 L⁻¹ | Lymphocytes (RAO horses [2]; 2nd ciclesonide study, D 21): 1.73e+09 L⁻¹ | Segmented neutrophils (RAO horses [2]; 2nd ciclesonide study, D 21): 4.82e+09 L⁻¹ | clinical score (breathing effort score) compared to pretreatment values (RAO horses [1]; dexamethasone 0.066 mg/kg per os once daily, after 7 and 14 days): significantly reduced | all lung function variables compared to pretreatment values (RAO horses [1]; dexamethasone 0.066 mg/kg per os once daily, after 14 days, p≤0.0001): significantly reduced | potency relative to prednisone [3]: 7 times | potency relative to the naturally occurring hormone cortisol [3]: 27 times | all lung function variables (ΔPL, RL, EL) compared to pretreatment values (RAO horses [4]): significantly reduced | weighted clinical score compared to pretreatment values (RAO horses [4]): significantly reduced | serum cortisol levels compared to pretreatment values (RAO horses [5]): significantly reduced | serum cortisol levels in comparison to any of the ciclesonide treatment groups (RAO horses [5]): significantly reduced | all lung function variables (ΔPL, RL, EL) compared to pretreatment values (RAO horses [6]): significantly reduced | serum cortisol levels (RAO horses [7]): significantly reduced | serum cortisol levels in comparison to any of the ciclesonide treatment groups (RAO horses [7]): significantly reduced

C[C@]12C=CC(=O)C=C1CC[C@@H]1[C@@H]2[C@@H](O)C[C@@]2(C)[C@H]1C[C@H]1O[C@@H](C3CCCCC3)O[C@]12C(=O)CO [C21-C21-desisobutyrylciclesonide]
concentration at 4 h (in vivo): < 0.25 nM
